Patent US20170157000A1, “COSMETIC PRODUCT WITH LIPOSOMAL GROWTH FACTORS” (DERMOPARTNERS, S.L., priority 2014, published 2017)

B1: follistatin (protein, UniProt P19883 30-344, looked up)
Follistatin: GNCWLRQAKNGRCQVLYKTELSKEECCSTGRLSTSWTEEDVNDNTLFKWMIFNGGAPNCIPCKETCENVDCGPGKKCRMNKKNKPRCVCAPDCSNITWKGPVCGLDGKTYRNECALLKARCKEQPELEVQYQGRCKKTCRDVFCPGSSTCVVDQTNNAYCVTCNRICPEPASSEQYLCGNDGVTYSSACHLRKATCLLGRSIGLAYEGKCIKAKSCEDIQCTGGKKCLWDFKVGRGRCSLCDELCPDSKSDEPVCASDNATYASECAMKEAACSSGVLLEVKHSGSCNSISEDTEEEEEDEDQDYSFPISSILEW
notes: growth factor follistatin analyzed in free form

Legend:
[1] = tested on: human keratinocytes (HaCaT); experiment: MTT cell proliferation assay in human keratinocytes; format: cell-based; details: 72 hours
Excerpt: (§1) This assay is based on metabolic reduction of bromide 3-(4,5-dimethylthiazol-2-yl)-2,5-diphenyltetrazolium (MTT) carried out by the mitochondrial succinate dehydrogenase enzyme in a blue colored compound (formazan), allowing the mitochondrial functionality of the treated cells to be determined. This method has been very widely used to measure cell survival and proliferation. The quantity of live cells is proportional to the quantity of formazan produced. This method was developed by Mosmann in 1983, modified in 1986 by Francois Denizot and Rita Lang. • 1. Using trypsin, separate the cells and re-suspend them in supplemented culture medium (10% of bovine fetal serum and antibiotic). • 2. Determine the number of cells required per well using a Neubauer camera (HaCaT: 5,000 cells/96 well, 30,000 cells/24 well; HSF: 4,000 cells/96 well, 30,000 cells/24 well. • 3. Incubate at 37° C. and 5% of CO2 for 24 hours to allow for the adherence thereof. • 4. Prepare the mixtures of free and liposomated factor at the indicated concentrations, remove the medium and add the mixtures. • 5. Incubate at 37° C. and 5% of CO2 for 72 hours. • 6. Add MTT (1.9 mg/ml) in PBS solution (25 μl total) over the medium • 7. Incubate for 3 hours at 37° C. to allow for the formation of formazan crystals. • 8. Then remove the supernatant and add 100 μl of DMSO. • 9. Incubate for 30 minutes at 37° C. to allow for the formazan crystals to dissolve • 10. The optical density reading (OD) is carried out in a spectrophotometer at a wavelength of 570 nm. • The viability percentage is obtained in the following manner: % viability—DO cells treated×100/DO control cells

[2] = tested on: human keratinocytes (HaCaT); experiment: Wound healing assay (cell migration) in human keratinocytes; format: cell-based; details: 1 ng/ml; for wound closed more quickly than in the control cells: at 24 hours of treatment; for wound closure: at 48 hours
Excerpt: (§2) The objective of the wound healing assay is the study of cell migration. It is based on observing the behavior of a confluent cell monolayer on which a hole or wound has been previously made. The cells at the border of the hole move towards the opening until new cell-cell contacts are established, thus closing the wound.
(§3) The basic steps involve creating the wound or cell free area on the cell monolayer, the capture of images periodically during the experiment and the comparison of all the images to determine the velocity of cell migration.
• 1. Cultivate the cells until confluence (100% approx.) in plates of 6 wells (HaCaT: 500,000 cells/6 well; HSF: 500,000 cells/6 well) • 2. Incubate at 37° C. and 5% of CO2 for 24 hours. • 3. Scaling of the wounds (2 wounds per horizontal trajectory well using yellow sterile points (P200). They are dragged along the monolayer with an angle of inclination of 30 degrees (not perpendicular to the plate) and guided with a previously marked section. Mark three points for taking measurements. • 4. Leave to rest for 15 minutes before adding the treatment. • 5. Prepare the mixtures of free and liposomated factors at a concentration of 1 ng/ml, the medium is removed and add the mixtures. • 6. Incubate at 37° C. and 5% of CO2 for 72 hours. • 7. Take measurements at the times 0, 24, 48 and 72 hours.
The percentage of migration is obtained in the following manner:
(§4) % migration=(time measured 0−time measured X/time measured 0)*100

IL6 transcripts = experiment: Anti-inflammatory effect by quantitative PCR after LPS, IL6 transcripts; format: cell-based, human; details: cells with prior inflammation induced with 200 ng/ml LPS for three hours, dose dependent
Excerpt: (§5) PCR in real time or quantitative PCR is a variation of standard PCR used for quantifying DNA or messenger RNA (mRNA) of a sample. Using specific sequence primers, it is possible to determine the number of copies or the relative quantity of a determined DNA or RNA sequence.
(§6) When PCR in real time is combined with a retro-transcription or RT reaction (RTPCR), the mRNA quantity of a sample may be determined by means of a relative quantification. Said quantification is termed relative if the relative quantity or ratio of mRNA of a specific gene is compared with respect to the mRNA quantity of a constitutive gene (endogenous control, GAPDH in this case) among different samples. This is what is termed as normalization of the specific gene expression or normalizing with respect to the different total concentration of RNA of the samples since if the quantity of endogenous control varies it is due to changes in the total RNA quantity used in the synthesis of cDNA, not to changes in its expression. For the quantification, the quantity of amplicon produced is measured in each cycle of PCR. The quantification of the product is produced by means of the addition of fluorophores which join to the amplicon in a quantitative manner such that the greater the product, the greater the fluorescence that will be emitted. […]

human fibroblasts (HSF) [3] = experiment: Wound healing assay (cell migration) in human fibroblasts; format: cell-based; details: 1 ng/ml
Excerpt: as §2, §3
• 1. Cultivate the cells until confluence (100% approx.) in plates of 6 wells (HaCaT: 500,000 cells/6 well; HSF: 500,000 cells/6 well) • 2. Incubate at 37° C. and 5% of CO2 for 24 hours. • 3. […]
as §4

human fibroblasts (HSF) [4] = experiment: MTT cell proliferation assay in human fibroblasts; format: cell-based; details: 72 hours
Excerpt: as §1

[5] = tested on: transcripts of the gene of the elastin; experiment: Induction of elastin synthesis by quantitative PCR in keratinocytes; format: cell-based, human; details: control = value 1, dose dependent, 72 hours
Excerpt: as §5, §6

TNFa transcripts = experiment: Anti-inflammatory effect by quantitative PCR after LPS, TNFa transcripts; format: cell-based, human; details: cells with prior inflammation induced with 200 ng/ml LPS for three hours, dose dependent
Excerpt: as §5, §6

[6] = tested on: transcripts of the gene of the elastin; experiment: Induction of elastin synthesis by quantitative PCR in fibroblasts; format: cell-based, human; details: control = value 1, dose dependent, 72 hours
Excerpt: as §5, §6

[7] = concentrations greater than 1 ng/ml
[8] = low concentrations 0.01 ng/ml-0.5 ng/ml, untreated cells = 100% proliferation

| Molecule | cell proliferation above the untreated cells [1, 7] | wound closed more quickly than in the control cells [2] | wound closure [2] | transcript levels of IL6 (IL6 transcripts) | repair velocity of the wound versus control cells (human fibroblasts (HSF) [3]) | cell proliferation (untreated cells = 100%) (human fibroblasts (HSF) [4]; concentration not given) | cell proliferation (untreated cells = 100%) (human fibroblasts (HSF) [4]; [7]) | synthesis of elastin (elastin gene transcripts) with respect to the control cells [5] | transcript levels of TNFa (TNFa transcripts) | synthesis of elastin (elastin gene transcripts) with respect to the control cells [6] | cell proliferation above the untreated cells [1, 8] | repair velocity of the wound, more quickly with respect to the control (human fibroblasts (HSF) [3]) | cell proliferation above the untreated cells (human fibroblasts (HSF) [4]; [7]) | cell proliferation above the untreated cells (human fibroblasts (HSF) [4]; [8]) | cell proliferation above the untreated cells (human fibroblasts (HSF) [4]; concentration of 0.5 ng/ml) |
| --- | --- | --- | --- | --- | --- | --- | --- | --- | --- | --- | --- | --- | --- | --- | --- |
| Nicotiana benthamiana Sh-Polypeptide-7 [HGH free factor] | around 20% | 40% | completely closed | decrease | hardly any difference | around 100% | around 100% | increase in the synthesis of elastin | decrease | increase in the synthesis of elastin | – | – | – | – | – |
| Nicotiana benthamiana Sh-Polypeptide-45 [GM-CSF free factor] | around 20% | 13% | completely closed | decrease | – | – | – | increase in the synthesis of elastin | decrease | increase in the synthesis of elastin | 20% | 20% | around 60% | 100% | – |
| B1 | – | – | – | – | – | – | – | – | – | – | – | – | maintains cell proliferation around the control | – | 40% |
